Values joined by “and” are separate entries in the source; they are usually repeats but may differ in a detail not shown here. Equal entries are not always repeated.
Tests used:
subjects with PPR = assay: Study 1 and Study 2: once-daily ivermectin 1% cream vs vehicle in moderate to severe PPR (Example 3); type: in vivo, human
Method: Both studies were conducted in accordance with the ethical principles of the Declaration of Helsinki and Good Clinical Practices, and in compliance with local regulatory requirements.
Each study had three parts. In the first part of the study, subjects with PPR were treated with ivermectin 1% cream (IVM 1%) or vehicle once daily at bedtime for 12 weeks. In the second part of the study, subjects initially treated with IVM 1% once daily at bedtime continued the same treatment, while subjects treated with the vehicle once daily switched to topical treatment with azelaic acid 15% gel twice daily, in the morning and evening. The third part of the study consisted of 4 weeks safety follow-up, without treatment.
Eligible subjects were 18 years or older, with moderate or severe papulopustular rosacea as noted by an IGA of 3 (“several small or large papules/pustules, moderate erythema”) or 4 (“numerous small and/or large papules/pustules, severe erythema”), and presenting with 15-70 facial inflammatory lesions (papules and pustules). […]
Efficacy assessments at each visit were the IGA of disease severity, and inflammatory lesion counts (papules and pustules) on each of the five facial regions (forehead, chin, nose, right cheek, left cheek). Safety assessments included adverse events (AEs) throughout the study, local tolerance parameters (stinging/burning, dryness, itching) at each study visit evaluated on a 4-point scale [from 0 (none) to 3 (severe)], and laboratory parameters (hematology and biochemistry) measured before and after treatment. […]
The co-primary efficacy endpoints in both studies were the success rate based on the IGA outcome and absolute change from baseline in inflammatory lesion counts at the end of week 12 of the studies. The success rate based on IGA score [% of subjects who achieved “clear” or “almost clear” ratings on the IGA scale at week 12 (ITT-LOCF)] was analyzed by the Cochran-Mantel-Haenszel (CMH) test stratified by analysis site, using the general association statistic. […]

[1] = orally administered; cited from earlier work
[2] = Plasma pharmacokinetic study of ivermectin 1% cream in subjects with severe PPR (Example 5); type: in vivo, human
Method: A multi-center, open-label, single treatment study was conducted to assess the pharmacokinetic (PK) profile of ivermectin 1% (w/w) cream in subjects with severe PPR. A maximized dose of about 2 mg/cm^2 (1 g of ivermectin 1% (w/w) cream, equivalent to 10 mg ivermectin per application) was applied to the face once daily for 4 weeks. The treatment was followed by a 28-Day follow-up period.
A total of seventeen subjects received at least one dose of treatment. All subjects provided PK parameters at some time points, but fifteen (9 females and 6 males) provided full PK profiles at Days 0, 14 and 28.
Blood samples for determination of ivermectin levels in plasma were taken from all subjects before application on Days 0, 7, 14, 21 and 28 (pre-dose samples corresponding to Cmin). Additional blood samples were taken on Days 0, 14 and 28 at 1, 3, 6, 9 and 12 hours after application. At, the end of the 28-Day treatment, blood samples were taken on Days 29, 30, 32, 35, 38, 42, 49 and 56 during the follow-up period. The plasma was isolated and frozen (−20° C.) pending analysis.
The pharmacokinetic analysis was performed. From the individual plasma concentrations, the pharmacokinetic parameters were determined by non-compartmental method Kinetica™ sofware, version 4.3, InnaPhase Corporation, Philadelphia, USA).
AUC0-24 H was calculated by the mixed linear-logarithmic trapezoidal method at Day 0, 14 and 28. BLQ was imputed as zero in the individual PK profile.
During the follow up period, the following parameters were measured: • (1) AUC0-t: Area under the concentration-time curve calculated by the mixed linear-logarithmic trapezoidal method from T0 up to the sampling time corresponding to the last quantifiable concentration (Clast); • (2) Kel: The elimination rate constant value (kel) was obtained by linear regression of log-linear terminal phase of concentration-time profile using at least 3 data points, excluding Cmax, otherwise kel was not determined. The acceptability criteria for determination of kel was a coefficient of regression more or equal to 0.98. When kel was not determined, AUC0-inf and t½ were not reported; • (3) t½: The terminal half-life value (t½) was calculated using the equation ln2/kel; • (4) AUC0-inf: Area under the plasma concentration-time curve calculated by the mixed linear-logarithmic trapezoidal method from T0 and extrapolated to time infinity as: AUC0-inf=AUC0-t+Clast/kel.
When the extrapolation represented more than 20%, AUC0-inf and t1/2 […]. Mean values, standard deviation (SD), lowest individual value (Min), maximal individual value (Max) and coefficient of variation (CV) were calculated and reported on each variables (Arithmetic mean for AUC, Cmax, Tmax and harmonic mean for t1/2). Conversely to the protocol, the standard error of mean (SEM) were not calculated and not reported. In addition a statistical analysis was performed on ivermectin specific parameters (including the accumulation ratios).

Substance: ivermectin
- plasma accumulation of ivermectin (subjects with PPR; 52-week treatment period (Phase 3 study)): no plasma accumulation
- median reduction from baseline in inflammatory lesion counts (subjects with PPR; Study 1, week 2): about 30%
- median reduction from baseline in inflammatory lesion counts (subjects with PPR; Study 2, week 2): 27.3%
- t1/2, typical [1]: around 18 hours
- AUC0-24 H, Min-Max ([2]; Day 0): [3.16-21.28] ng · h/mL
- AUC0-24 H, mean ± SD ([2]; Day 0): 9.29 ± 5.40 ng·h/mL
- Pre-dose/Cmin, Min-Max ([2]; Day 0): [0.17-0.86] ng/mL
- Tmax, Min-Max ([2]; Day 0): [1-24] h
- Pre-dose/Cmin, mean ± SD ([2]; Day 0 (24 hours after D0), plasma, 1 g ivermectin 1% cream on the face once daily): 0.37 ng/mL and 0.37 ± 0.21^(a) ng/mL
- Cmax, mean ± SD ([2]; Day 0 (single topical application)): 0.69 ng/mL
- Pre-dose/Cmin, Min-Max ([2]; Day 7): [0.56-3.26] ng/mL
- Pre-dose/Cmin, mean ± SD ([2]; Day 7, plasma, ivermectin 1% cream once daily): 1.17 ± 0.88 ng/mL
- Pre-dose/Cmin, Min-Max ([2]; Day 14): [0.58-2.34] ng/mL
- Tmax, Min-Max ([2]; Day 14): [0-24] h
- AUC0-24 H, mean ± SD ([2]; Day 14 (steady state)): 36.14 ± 15.56 ng·h/mL
- Cmax, mean ± SD ([2]; Day 14 (steady state)): 2.10 ± 1.04 ng/mL
- Tmax, mean ± SD ([2]; Day 14 (steady state)): 10 ± 8 h
- Pre-dose/Cmin, mean ± SD ([2]; Day 14, plasma, ivermectin 1% cream once daily): 1.26±0.53 ng/mL and 1.26 ± 0.53^(c) ng/mL
- Pre-dose/Cmin, Min-Max ([2]; Day 21): [0.66-3.25] ng/mL
- Pre-dose/Cmin, mean ± SD ([2]; Day 21, plasma, ivermectin 1% cream once daily): 1.36±0.66 ng/mL and 1.36 ± 0.66^(c) ng/mL
- AUC0-24 H, mean ± SD ([2]; Day 28): 35.43 ± 14.42 ng·h/mL
- Cmax, Min-Max ([2]; Day 28): [0.58-3.36] ng/mL
- Cmax, mean ± SD ([2]; Day 28): 1.74 ± 0.77 ng/mL
- Pre-dose/Cmin, Min-Max ([2]; Day 28): [0.53-3.00] ng/mL
- Tmax, Min-Max ([2]; Day 28): [3-24] h
- Tmax, mean ± SD ([2]; Day 28): 11 ± 4 h
- total systemic exposure (AUC0-inf) ([2]; Day 28): 312 ± 173 ng·h/mL
- Pre-dose/Cmin, mean ± SD ([2]; Day 28, plasma, ivermectin 1% cream once daily): 1.36 ± 0.63 ng/mL
- time of last quantifiable concentration after application ([2]; after Day 28): approximately 24 days
- apparent terminal half-life, range ([2]; after the last topical application (Day 28), 14 subjects): 92 to 238 h
- relative bioavailability vs oral administration of ivermectin ([2]; steady state, topical): 16%
